Earlier results, collected in paper PMC4584145 (Antiviral chemistry & chemotherapy, 2011).

Experiments:
N-HR of HIV-1 gp41 = conditions: ELISA; N-HR containing amino acid positions 18 to 73
[1] = tested on: 5-helix complex (three N-HRs and two C-HRs)

Substance | binding to the N-HR (N-HR of HIV-1 gp41) | interaction with artificial 5-helix complex [1]
C34: representative C-HR-derived peptide that inhibits HIV-1 fusion to host cells | binds strongly | 
Enfuvirtide [T20] | binds weakly | much weaker than that between C34 and the complex
